How the values were obtained:
[1] = tested on: Influenza A virus; assay: Antiviral activity against Influenza A virus A/WSN/1933 (H1N1) infected in MDCK cells assessed as protection against virus induced cytopathic effect after 40 hrs by Celltiter-Glo assay; type: functional, organism-based
[2] = tested on: Influenza B virus; assay: Antiviral activity against influenza B virus B/SZ/155 infected in dog MDCK cells assessed as inhibition of virus induced cytopathic effect after 40 hrs by Cell-Titer-Glo assay; type: functional, organism-based; details: B/SZ/155, MDCK
[3] = Cytotoxicity against MDCK cells after 40 hrs by Celltiter-Glo assay; type: cell-based, Canis lupus familiaris; details: dog
[4] = (§1) Binding affinity to Influenza A virus A/WSN/33 (H1N1) HA1 protein by surface plasmon resonance assay; set-up: species or system Influenza A virus (A/WSN/1933(H1N1))
[5] = tested on: Influenza A virus (A/WSN/1933(H1N1)); assay: as §1
[6] = Inhibition of Influenza A virus A/WSN/33 (H1N1) HA1 protein by surface plasmon resonance assay; set-up: species or system Influenza A virus (A/WSN/1933(H1N1))
[7] = tested on: Influenza A virus (A/WSN/1933(H1N1)); assay: Binding affinity to Influenza A virus A/WSN/33 (H1N1) HA1 protein assessed as decrease in protein affinity to sialic acid receptor at 2.5 uM by surface plasmon resonance assay
[8] = tested on: Influenza A virus (A/WSN/1933(H1N1)); assay: Binding affinity to Influenza A virus A/WSN/33 (H1N1) HA1 protein assessed as decrease in protein affinity to sialic acid receptor at 20 uM by surface plasmon resonance assay
[9] = tested on: Influenza A virus (A/WSN/1933(H1N1)); assay: Binding affinity to Influenza A virus A/WSN/33 (H1N1) HA1 protein assessed as decrease in protein affinity to sialic acid receptor at 5 uM by surface plasmon resonance assay
[10] = Binding affinity to Influenza A virus A/WSN/33 (H1N1) HA1 protein assessed as decrease in protein affinity to sialic acid receptor by measuring dissociation constant by surface plasmon resonance assay (reference value: 0.001473/Ms); set-up: species or system Influenza A virus (A/WSN/1933(H1N1))
[11] = tested on: Influenza A virus (A/WSN/1933(H1N1)); assay: Binding affinity to Influenza A virus A/WSN/33 (H1N1) HA1 protein assessed as decrease in protein affinity to sialic acid receptor at 20 uM by surface plasmon resonance assay relative to control
[12] = tested on: Influenza A virus (A/WSN/1933(H1N1)); assay: Binding affinity to Influenza A virus A/WSN/33 (H1N1) HA1 protein assessed as decrease in protein affinity to sialic acid receptor at 0.625 uM by surface plasmon resonance assay
[13] = Binding affinity to Influenza A virus A/WSN/33 (H1N1) HA1 protein assessed as decrease in protein affinity to sialic acid receptor by surface plasmon resonance assay (reference value: 70 nM); set-up: species or system Influenza A virus (A/WSN/1933(H1N1))
[14] = tested on: Influenza A virus (A/WSN/1933(H1N1)); assay: Binding affinity to Influenza A virus A/WSN/33 (H1N1) HA1 protein assessed as decrease in protein affinity to sialic acid receptor by measuring association constant by surface plasmon resonance assay (reference value: 20810/s)
[15] = tested on: Influenza A virus (A/WSN/1933(H1N1)); assay: Binding affinity to Influenza A virus A/WSN/33 (H1N1) HA1 protein assessed as decrease in protein affinity to sialic acid receptor at 10 uM by surface plasmon resonance assay
[16] = tested on: Influenza A virus (A/WSN/1933(H1N1)); assay: Binding affinity to Influenza A virus A/WSN/33 (H1N1) HA1 protein assessed as decrease in protein affinity to sialic acid receptor at 1.25 uM by surface plasmon resonance assay

| Compound | IC50 [1] | CC50 at 40 h [3] | Activity [7] | Activity [8] | Activity [9] | Kd [10] | Activity [12] | Kd [13] | Ka [14] | Activity [15] | Activity [16] | other results |
| --- | --- | --- | --- | --- | --- | --- | --- | --- | --- | --- | --- | --- |
| NC12CC3CC(CC(C3)C1)C2 [AMANTADINE] | 13 µM | > 100 µM |  |  |  |  |  |  |  |  |  | EC50 [2]: 144 µM |
| CCCc1cc(O)c(Cl)c(OC)c1Oc1c(Cl)c(O)c(Cl)c2c1C(=O)O[C@@H]2CC | 11.4 µM | > 100 µM |  |  |  |  |  |  |  |  |  | Kd [4]: 55 µM; Ka [5]: 0.77 ×10⁴ /Ms; IC50 [6]: 11.4 µM |
| COc1cc(/C=C/C(=O)CC(=O)/C=C/c2ccc(O)c(OC)c2)ccc1O [CURCUMIN] |  |  | 6.8 RU | 78.8 RU | 16.1 RU | 0.001351 M⁻¹ s⁻¹ | 0.8 RU | 0.507 µM | 2660 s⁻¹ | 36.4 RU | 2.7 RU | fold change (FC) [11]: 8 |
| CCCc1c(Cl)c(O)c(Cl)c(O)c1Oc1c(Cl)c(O)c(Cl)c2c1C(=O)O[C@@H]2CC | 38.2 µM | > 50 µM |  |  |  |  |  |  |  |  |  |  |
| CCCc1cc(O)cc(O)c1Oc1c(Cl)c(O)c(Cl)c2c1C(=O)O[C@@H]2CC | > 100 µM | > 100 µM |  |  |  |  |  |  |  |  |  |  |
| CCOC(=O)c1c(CSc2ccccc2)n(C)c2cc(Br)c(O)c(CN(C)C)c12 [UMIFENOVIR] |  |  | 7.5 RU | 102 RU | 20.7 RU | 0.0009582 M⁻¹ s⁻¹ | -1.8 RU | 0.081 µM | 11800 s⁻¹ | 48.7 RU | 1.2 RU |  |
| CCCc1cc(O)cc(OC)c1Oc1c(Cl)c(O)c(Cl)c2c1C(=O)O[C@@H]2CC | 74.9 µM | > 100 µM | 13 RU | 114 RU | 27.1 RU | 0.0007964 M⁻¹ s⁻¹ | 3.4 RU | 0.224 µM | 3560 s⁻¹ | 55.1 RU | 7 RU | Ka [5]: 0.46 ×10⁴ /Ms; IC50 [6]: 74.9 µM |
| CCCc1c(Cl)c(OC)c(Cl)c(O)c1Oc1c(Cl)c(O)c(Cl)c2c1C(=O)O[C@@H]2CC | > 50 µM | > 50 µM |  |  |  |  |  |  |  |  |  |  |
| CCCc1c(Cl)c(OC)cc(O)c1Oc1c(Cl)c(O)c(Cl)c2c1C(=O)O[C@@H]2CC | > 50 µM | > 50 µM |  |  |  |  |  |  |  |  |  |  |

From ChEMBL document CHEMBL3769343, “Spiromastilactones: A new class of influenza virus inhibitors from deep-sea fungus” (Eur J Med Chem, 2016)
